{"source": "the NIST ThermoML archive (doi:10.1016/j.fluid.2008.06.006)", "key": {"[1]": {"test": "refractive index (Na D-line) (dimensionless)", "conditions": "298.15 K; 101.33 kPa; Liquid; Standard Abbe refractometry"}, "[2]": {"conditions": "for vapor or sublimation pressure / mass density: Liquid; for mass density: 298.15 K, 101.33 kPa; for surface tension liquid-gas: 303.15 K, Ring tensiometer"}, "[3]": {"test": "xn = mol fraction of the nth substance listed", "conditions": "303.15 K, Maximal bubble pressure"}}, "note": "Numbers after ± are expanded uncertainties."}
{"smiles": "CC(C)=O", "note": "[acetone]", "values": [{"measurement": "refractive index", "setting": "[1]", "value": "1.35732 ± 0.00031"}, {"measurement": "vapor or sublimation pressure", "setting": "[2]; 297.65 K, Ebulliometric method (Recirculating still)", "value": "30.06 ± 0.21", "unit": "kPa"}, {"measurement": "mass density", "setting": "[2]", "value": "784.23 ± 0.24", "unit": "kg/m3"}, {"measurement": "surface tension liquid-gas", "setting": "[2]", "value": "22.45 ± 0.37", "unit": "mN/m"}, {"measurement": "vapor or sublimation pressure", "setting": "[2]; 303.23 K, Ebulliometric method (Recirculating still)", "value": "38.04 ± 0.21", "unit": "kPa"}, {"measurement": "vapor or sublimation pressure", "setting": "[2]; 307.39 K, Ebulliometric method (Recirculating still)", "value": "45.04 ± 0.21", "unit": "kPa"}, {"measurement": "vapor or sublimation pressure", "setting": "[2]; 310.58 K, Ebulliometric method (Recirculating still)", "value": "51.08 ± 0.22", "unit": "kPa"}, {"measurement": "vapor or sublimation pressure", "setting": "[2]; 314.35 K, Ebulliometric method (Recirculating still)", "value": "59.07 ± 0.22", "unit": "kPa"}, {"measurement": "vapor or sublimation pressure", "setting": "[2]; 317.33 K, Ebulliometric method (Recirculating still)", "value": "66.06 ± 0.22", "unit": "kPa"}, {"measurement": "vapor or sublimation pressure", "setting": "[2]; 320.08 K, Ebulliometric method (Recirculating still)", "value": "73.08 ± 0.23", "unit": "kPa"}, {"measurement": "vapor or sublimation pressure", "setting": "[2]; 322.61 K, Ebulliometric method (Recirculating still)", "value": "80.07 ± 0.23", "unit": "kPa"}, {"measurement": "vapor or sublimation pressure", "setting": "[2]; 324.96 K, Ebulliometric method (Recirculating still)", "value": "87.09 ± 0.24", "unit": "kPa"}, {"measurement": "vapor or sublimation pressure", "setting": "[2]; 327.17 K, Ebulliometric method (Recirculating still)", "value": "94.07 ± 0.24", "unit": "kPa"}, {"measurement": "vapor or sublimation pressure", "setting": "[2]; 329.33 K, Ebulliometric method (Recirculating still)", "value": "101.35 ± 0.24", "unit": "kPa"}]}
{"smiles": "CC(C)=O", "note": "[acetone] + C1CCCCC1", "values": [{"measurement": "surface tension liquid-gas", "setting": "[3]; x1 = 0.047", "value": "23.85 ± 0.26", "unit": "mN/m"}, {"measurement": "surface tension liquid-gas", "setting": "[3]; x1 = 0.091", "value": "23.6 ± 0.26", "unit": "mN/m"}, {"measurement": "surface tension liquid-gas", "setting": "[3]; x1 = 0.185", "value": "23.1 ± 0.26", "unit": "mN/m"}, {"measurement": "surface tension liquid-gas", "setting": "[3]; x1 = 0.298", "value": "22.7 ± 0.26", "unit": "mN/m"}, {"measurement": "surface tension liquid-gas", "setting": "[3]; x1 = 0.403", "value": "22.4 ± 0.26", "unit": "mN/m"}, {"measurement": "surface tension liquid-gas", "setting": "[3]; x1 = 0.513", "value": "22.2 ± 0.26", "unit": "mN/m"}, {"measurement": "surface tension liquid-gas", "setting": "[3]; x1 = 0.621", "value": "22.1 ± 0.26", "unit": "mN/m"}, {"measurement": "surface tension liquid-gas", "setting": "[3]; x1 = 0.736", "value": "22.05 ± 0.26", "unit": "mN/m"}, {"measurement": "surface tension liquid-gas", "setting": "[3]; x1 = 0.842", "value": "22.15 ± 0.26", "unit": "mN/m"}, {"measurement": "surface tension liquid-gas", "setting": "[3]; x1 = 0.943", "value": "22.4 ± 0.26", "unit": "mN/m"}]}
{"smiles": "C1CCCCC1", "note": "[cyclohexane]", "values": [{"measurement": "refractive index", "setting": "[1]", "value": "1.42508 ± 0.00031"}, {"measurement": "mass density", "setting": "[2]", "value": "773.84 ± 0.25", "unit": "kg/m3"}, {"measurement": "vapor or sublimation pressure", "setting": "[2]; 302.71 K", "value": "16.01 ± 0.18", "unit": "kPa"}, {"measurement": "surface tension liquid-gas", "setting": "[2]", "value": "24.1 ± 0.38", "unit": "mN/m"}, {"measurement": "vapor or sublimation pressure", "setting": "[2]; 312.45 K", "value": "24.02 ± 0.19", "unit": "kPa"}, {"measurement": "vapor or sublimation pressure", "setting": "[2]; 318.13 K", "value": "30.03 ± 0.24", "unit": "kPa"}, {"measurement": "vapor or sublimation pressure", "setting": "[2]; 324.4 K", "value": "38.02 ± 0.28", "unit": "kPa"}, {"measurement": "vapor or sublimation pressure", "setting": "[2]; 329.08 K", "value": "45.03 ± 0.32", "unit": "kPa"}, {"measurement": "vapor or sublimation pressure", "setting": "[2]; 332.63 K", "value": "51.01 ± 0.36", "unit": "kPa"}, {"measurement": "vapor or sublimation pressure", "setting": "[2]; 336.88 K", "value": "59.01 ± 0.4", "unit": "kPa"}, {"measurement": "vapor or sublimation pressure", "setting": "[2]; 340.25 K", "value": "66.01 ± 0.44", "unit": "kPa"}, {"measurement": "vapor or sublimation pressure", "setting": "[2]; 343.34 K", "value": "73.02 ± 0.47", "unit": "kPa"}, {"measurement": "vapor or sublimation pressure", "setting": "[2]; 346.22 K", "value": "80.03 ± 0.51", "unit": "kPa"}, {"measurement": "vapor or sublimation pressure", "setting": "[2]; 348.89 K", "value": "87.02 ± 0.54", "unit": "kPa"}, {"measurement": "vapor or sublimation pressure", "setting": "[2]; 351.4 K", "value": "94.02 ± 0.58", "unit": "kPa"}, {"measurement": "vapor or sublimation pressure", "setting": "[2]; 354.06 K", "value": "101.9 ± 0.6", "unit": "kPa"}]}
{"smiles": "CC(C)OC(C)C", "note": "[diisopropyl ether]", "values": [{"measurement": "refractive index", "setting": "[1]", "value": "1.36644 ± 0.00032"}, {"measurement": "vapor or sublimation pressure", "setting": "[2]; 293.25 K, Ebulliometric method (Recirculating still)", "value": "16.02 ± 0.2", "unit": "kPa"}, {"measurement": "mass density", "setting": "[2]", "value": "718.34 ± 0.45", "unit": "kg/m3"}, {"measurement": "vapor or sublimation pressure", "setting": "[2]; 302.42 K, Ebulliometric method (Recirculating still)", "value": "24.02 ± 0.2", "unit": "kPa"}, {"measurement": "surface tension liquid-gas", "setting": "[2]", "value": "16.7 ± 0.32", "unit": "mN/m"}, {"measurement": "vapor or sublimation pressure", "setting": "[2]; 307.79 K, Ebulliometric method (Recirculating still)", "value": "30.02 ± 0.21", "unit": "kPa"}, {"measurement": "vapor or sublimation pressure", "setting": "[2]; 313.73 K, Ebulliometric method (Recirculating still)", "value": "38.02 ± 0.21", "unit": "kPa"}, {"measurement": "vapor or sublimation pressure", "setting": "[2]; 318.15 K, Ebulliometric method (Recirculating still)", "value": "45.02 ± 0.21", "unit": "kPa"}, {"measurement": "vapor or sublimation pressure", "setting": "[2]; 321.52 K, Ebulliometric method (Recirculating still)", "value": "51.01 ± 0.22", "unit": "kPa"}, {"measurement": "vapor or sublimation pressure", "setting": "[2]; 325.55 K, Ebulliometric method (Recirculating still)", "value": "59.01 ± 0.22", "unit": "kPa"}, {"measurement": "vapor or sublimation pressure", "setting": "[2]; 328.74 K, Ebulliometric method (Recirculating still)", "value": "66.01 ± 0.22", "unit": "kPa"}, {"measurement": "vapor or sublimation pressure", "setting": "[2]; 331.67 K, Ebulliometric method (Recirculating still)", "value": "73.01 ± 0.23", "unit": "kPa"}, {"measurement": "vapor or sublimation pressure", "setting": "[2]; 334.38 K, Ebulliometric method (Recirculating still)", "value": "80.01 ± 0.23", "unit": "kPa"}, {"measurement": "vapor or sublimation pressure", "setting": "[2]; 336.91 K, Ebulliometric method (Recirculating still)", "value": "87.01 ± 0.23", "unit": "kPa"}]}
{"smiles": "CC(C)OC(C)C", "note": "[diisopropyl ether] + C1CCCCC1", "values": [{"measurement": "surface tension liquid-gas", "setting": "[3]; x1 = 0.049", "value": "23.3 ± 0.26", "unit": "mN/m"}, {"measurement": "surface tension liquid-gas", "setting": "[3]; x1 = 0.098", "value": "22.7 ± 0.26", "unit": "mN/m"}, {"measurement": "surface tension liquid-gas", "setting": "[3]; x1 = 0.199", "value": "21.4 ± 0.26", "unit": "mN/m"}, {"measurement": "surface tension liquid-gas", "setting": "[3]; x1 = 0.301", "value": "20.7 ± 0.26", "unit": "mN/m"}, {"measurement": "surface tension liquid-gas", "setting": "[3]; x1 = 0.403", "value": "19.75 ± 0.25", "unit": "mN/m"}, {"measurement": "surface tension liquid-gas", "setting": "[3]; x1 = 0.509", "value": "19 ± 0.25", "unit": "mN/m"}, {"measurement": "surface tension liquid-gas", "setting": "[3]; x1 = 0.622", "value": "18.3 ± 0.25", "unit": "mN/m"}, {"measurement": "surface tension liquid-gas", "setting": "[3]; x1 = 0.727", "value": "17.8 ± 0.25", "unit": "mN/m"}, {"measurement": "surface tension liquid-gas", "setting": "[3]; x1 = 0.837", "value": "17.3 ± 0.25", "unit": "mN/m"}, {"measurement": "surface tension liquid-gas", "setting": "[3]; x1 = 0.936", "value": "16.9 ± 0.25", "unit": "mN/m"}, {"measurement": "surface tension liquid-gas", "setting": "[3]; x1 = 0.967", "value": "16.8 ± 0.25", "unit": "mN/m"}]}
{"smiles": "CC(C)OC(C)C", "note": "[diisopropyl ether] + CC(C)=O", "values": [{"measurement": "surface tension liquid-gas", "setting": "[3]; x2 = 0.046", "value": "16.75 ± 0.25", "unit": "mN/m"}, {"measurement": "surface tension liquid-gas", "setting": "[3]; x2 = 0.089", "value": "16.8 ± 0.25", "unit": "mN/m"}, {"measurement": "surface tension liquid-gas", "setting": "[3]; x2 = 0.187", "value": "16.95 ± 0.25", "unit": "mN/m"}, {"measurement": "surface tension liquid-gas", "setting": "[3]; x2 = 0.29", "value": "17.3 ± 0.25", "unit": "mN/m"}, {"measurement": "surface tension liquid-gas", "setting": "[3]; x2 = 0.39", "value": "17.65 ± 0.25", "unit": "mN/m"}, {"measurement": "surface tension liquid-gas", "setting": "[3]; x2 = 0.499", "value": "18.05 ± 0.25", "unit": "mN/m"}, {"measurement": "surface tension liquid-gas", "setting": "[3]; x2 = 0.61", "value": "18.6 ± 0.25", "unit": "mN/m"}, {"measurement": "surface tension liquid-gas", "setting": "[3]; x2 = 0.722", "value": "19.2 ± 0.25", "unit": "mN/m"}, {"measurement": "surface tension liquid-gas", "setting": "[3]; x2 = 0.829", "value": "20.15 ± 0.25", "unit": "mN/m"}, {"measurement": "surface tension liquid-gas", "setting": "[3]; x2 = 0.93", "value": "21.3 ± 0.26", "unit": "mN/m"}, {"measurement": "surface tension liquid-gas", "setting": "[3]; x2 = 0.973", "value": "21.94 ± 0.26", "unit": "mN/m"}]}
